# Experimental data as given in US20250009627A1, “THERAPEUTIC AND NON-THERAPEUTIC USES OF A PERSONAL CLEANSING COMPOSITION AND METHODS OF TREATMENT” (The Procter & Gamble Company, priority 2023, published 2025).
# How the values were obtained:
# [1] = test system: Corynebacterium minutissimum ATCC 23348; test: In vitro Minimum Inhibitory Concentration (MIC) testing; assay type: cell-based; conditions: for MIC: ATCC23348, read-out: Minimum Inhibition Concentration MIC
# Description: (§1) The in vitro Minimum Inhibitory Concentration (MIC) Assay is a technique for determining the lowest concentration of a particular compound needed to prevent growth of microorganism. Different microorganisms were used to evaluate bacterial inhibition benefits for sulfate surfactants (Table 1) [table] Microorganisms are cultured and maintained in different culture medium. Each respective microorganism stock solution is diluted to 10^5 to 10^6 CFU/mL in a respective growth medium. 180 μl broth with the respective target microorganism is allocated into 96 well plates. For instance, Corynebacterium minutissimum ATCC 23348 is cultured on tryptic soy agar (TSA) (Oxoid CM0131) over 24 hours. The single colonies are then transferred into 20 mL Tryptone Soy Broth (Oxoid CM0129B—TSB) and cultured overnight at 200 rpm/min, 37° C. Bacterial cell in broth will be diluted to 10^5 to 10^6 CFU/mL in TSB. 180 μL of this bacterium-MHB mix is added to a 96 well flat-bottomed plate (Nunc™ MicroWell™ 96-Well, CAT. No. 167008). Sodium oleyl sulfate prepared from two different synthesis batches (Ex. 1A and Ex. 1B), sodium octyl sulfate, sodium decyl sulfate, sodium lauryl sulfate were mixed respectively with in Deionized (DI) water. Octadecyl sulfate sodium was mixed in Dimethyl sulfoxide (DMSO). Two folds serial dilution are applied to each respective active by mixing 100 μl active stock solution (from 1 wt. %) plus 100 μl sterilized DI water or DMSO in 96 well plates (Nunc™ MicroWell™ 96-Well, CAT. No. 167008). For each assay, 0.001-1 wt. % treatment solutions are prepared for each individual active. Micropipettes are used to transfer 20 μl of actives at different concentration into each well with 180 μl broth with the respective target microorganisms. The 96 well plates with test microorganisms and test actives are incubated at 37° C. • a) E. coli are incubated for overnight 16 hours to 24 hour. • b) Corynebacterium minutissimum is incubated for two days. • c) Cutibacterium acnes is incubated for two days under anaerobic conditions. After incubation, microorganism growth is determined in presence of test actives by visual inspection or spectrophotometer by OD600 (absorbance at 600 nm using Tecan M200 Infinite Pro Microplate Reader) reading in comparison with positive control (broth with individual microorganism) and negative control (Broth only). MIC values are presented as parts per million (ppm) for different actives.
# Cutibacterium acne SK137 = test: as above; assay type: cell-based, Cutibacterium acnes; conditions: for MIC: Cutibacterium, SK137, Cutibacterium acne SK137, anaerobic, read-out: Minimum Inhibition Concentration MIC; for bacterial inhibition of Cutibacterium acne (in words): two strains (SK137, 2044 NIA)
# Description: as §1, with “plates.” for “plates. For instance, Corynebacterium minutissimum ATCC 23348 is cultured on tryptic soy agar (TSA) (Oxoid CM0131) over 24 hours. The single colonies are then transferred into 20 mL Tryptone Soy Broth (Oxoid CM0129B—TSB) and cultured overnight at 200 rpm/min, 37° C. Bacterial cell in broth will be diluted to 10^5 to 10^6 CFU/mL in TSB. 180 μL of this bacterium-MHB mix is added to a 96 well flat-bottomed plate (Nunc™ MicroWell™ 96-Well, CAT. No. 167008).”
# [2] = test system: Escherichia coli ATCC25922; test: as above; assay type: cell-based; conditions: for MIC: Escherichia coli ATCC25922, pH of the assay 7.2, read-out: Minimum Inhibition Concentration MIC
# Description: as §1, with “plates.” for “plates. For instance, Corynebacterium minutissimum ATCC 23348 is cultured on tryptic soy agar (TSA) (Oxoid CM0131) over 24 hours. The single colonies are then transferred into 20 mL Tryptone Soy Broth (Oxoid CM0129B—TSB) and cultured overnight at 200 rpm/min, 37° C. Bacterial cell in broth will be diluted to 10^5 to 10^6 CFU/mL in TSB. 180 μL of this bacterium-MHB mix is added to a 96 well flat-bottomed plate (Nunc™ MicroWell™ 96-Well, CAT. No. 167008).”
# [3] = test system: Staphylococcus aureus ATCC6538; test: as above; assay type: cell-based; conditions: for MIC: read-out: Minimum Inhibition Concentration MIC
# Description: as §1, with “plates.” for “plates. For instance, Corynebacterium minutissimum ATCC 23348 is cultured on tryptic soy agar (TSA) (Oxoid CM0131) over 24 hours. The single colonies are then transferred into 20 mL Tryptone Soy Broth (Oxoid CM0129B—TSB) and cultured overnight at 200 rpm/min, 37° C. Bacterial cell in broth will be diluted to 10^5 to 10^6 CFU/mL in TSB. 180 μL of this bacterium-MHB mix is added to a 96 well flat-bottomed plate (Nunc™ MicroWell™ 96-Well, CAT. No. 167008).”
# [4] = test system: Cutibacterium acne 2044 NIA (skin isolate); test: as above; assay type: cell-based, Cutibacterium acnes; conditions: for MIC: read-out: Minimum Inhibition Concentration MIC
# Description: The in vitro Minimum Inhibitory Concentration (MIC) Assay is a technique for determining the lowest concentration of a particular compound needed to prevent growth of microorganism. Different microorganisms were used to evaluate bacterial inhibition benefits for sulfate surfactants (Table 1)
# Microorganisms are cultured and maintained in different culture medium. Each respective microorganism stock solution is diluted to 10^5 to 10^6 CFU/mL in a respective growth medium. 180 μl broth with the respective target microorganism is allocated into 96 well plates.
# Sodium oleyl sulfate prepared from two different synthesis batches (Ex. 1A and Ex. 1B), sodium octyl sulfate, sodium decyl sulfate, sodium lauryl sulfate were mixed respectively with in Deionized (DI) water. Octadecyl sulfate sodium was mixed in Dimethyl sulfoxide (DMSO).
# Two folds serial dilution are applied to each respective active by mixing 100 μl active stock solution (from 1 wt. %) plus 100 μl sterilized DI water or DMSO in 96 well plates (Nunc™ MicroWell™ 96-Well, CAT. No. 167008). For each assay, 0.001-1 wt. % treatment solutions are prepared for each individual active.
# Micropipettes are used to transfer 20 μl of actives at different concentration into each well with 180 μl broth with the respective target microorganisms.
# The 96 well plates with test microorganisms and test actives are incubated at 37° C. • a) E. coli are incubated for overnight 16 hours to 24 hour. • b) Corynebacterium minutissimum is incubated for two days. • c) Cutibacterium acnes is incubated for two days under anaerobic conditions.
# After incubation, microorganism growth is determined in presence of test actives by visual inspection or spectrophotometer by OD600 (absorbance at 600 nm using Tecan M200 Infinite Pro Microplate Reader) reading in comparison with positive control (broth with individual microorganism) and negative control (Broth only). MIC values are presented as parts per million (ppm) for different actives.
# C. acne SK137 and C. acne 2044NIA (P&G skin isolate) are from Type IA-2 Clade by whole genome sequencing, which is reported to be associated with skin acne conditions.
# E. coli ATCC25922 = test: Kill Rate Test in liquid (suspension time-kill testing); assay type: cell-based, Escherichia coli
# From the text: The suspension time-kill test is a method to directly inoculate a liquid test substance with a high concentration of test microorganisms and then determine the percentage of killed over time, normally represented as log CFU reduction. The objective is to measure the biocidal potential of a liquid antimicrobial active or formulation.
# E. coli ATCC25922 is streaked on Tryptic Soy Agar (TSA) Plates and cultured overnight. Pick up one colony of E. coli ATCC25922 and subculture bacterial cell in Tryptic Soy Broth (TSB) @ 200 rpm/min, 37° C. for 12-16 hours. After culturing, 1 mL bacterial cells in broth are pipetted into 2 mL tubes. Samples are centrifuged for 2 mins at 13000 rpm/min. Cell supernatant are discarded, and bacterial cells are resuspended in 1 mL Saline @ 10^8 to 10^9 CFU/mL. 1 mL liquid antimicrobial active to be tested under different concentrations is prepared: 20 mM acetate buffers are used to maintain the test solutions at a pH between 4.0 and 5.7. 10 mM phosphate buffer is used to maintain the test solution at a pH around 7.2. 20 mM Tris-HCl buffers are used to maintain the test solutions at a pH between 8.0 and 9.0. 1 mL saline (NaCl 0.9 wt. %) is used to as negative control in the study. 50 μl of 10^8 to 10^9 CFU/mL bacterial cells are added into each treatment and saline control. Samples were thoroughly mixed by vertexing 5 seconds. After incubating 30 minutes, 50 μl liquid from each treatment sample and saline control are pipetted out into for Total Viable Count Vial (NEOGEN). All measurements are done in duplicates. The Detection Time (DT) for Total Viable Count Vial is measured by Soleris® Next Generation (NEOGEN) system. DT values are averaged for each treatment and control for further calculation. DT time for each sample is converted to Log (viable cell number) by using algorithm generated for E. coli ATCC25922:
# Biocidal potential of different actives at different concentrations and at different pHs in a liquid solution is measured by: […]
# [5] = From the text: The term “Biodegradable Test” as used herein means the test as described in the Test Method Section herein in which the test material is suspended in a phosphate buffered media containing an activated sludge inoculum and the formation of carbon dioxide measured via a closed-circuit respirometer. The test material is the sole carbon and energy source and under aerobic conditions microorganisms metabolize organic substances producing CO2 as the ultimate product. The biodegradability of the salt of the alkenyl sulfate ester, preferably sodium oleyl sulfate can be tested according to the following method. The Biodegradability Test Method is based on the Organization for Economic Co-operation and Development (OECD) 301B CO2 evolution biodegradation test method that screens chemicals for ready biodegradability in an aerobic aqueous medium. In this test, the test substance is suspended in a phosphate buffered nutrient salts media containing an activated sludge inoculum and the formation of carbon dioxide is measured via a closed-circuit respirometer. […] The test system is dosed with a known quantity of carbon and biodegradation is calculated as the percent of theoretical CO2 formation. […] Ready biodegradability is a regulator definition that is used to classify materials that meet the pass criteria as described in the OECD 301B guideline. […]
# [6] = Corynebacterium minutissimum ATCC 23348
smiles,measurement,setting,value
"CCCCCCCC/C=C\CCCCCCCCOS(=O)(=O)[O-].[Na+] [Ex. 1A, sodium oleyl sulfate]",MIC,[1]; [6],3.9 µg/mL
same,MIC,Cutibacterium acne SK137,3.9 µg/mL
same,MIC,[2],> 1000 µg/mL
same,MIC,[3]; Staphylococcus aureus ATCC6538,3.9 µg/mL
same,MIC,[4],7.8 µg/mL
"CCCCCCCC/C=C\CCCCCCCCOS(=O)(=O)[O-].[Na+] [Ex. 1B, sodium oleyl sulfate]",Minimum Inhibition Concentration MIC,[1]; [6],3.9 ppm
same,Minimum Inhibition Concentration MIC,"Cutibacterium acne SK137; Cutibacterium acne SK137, anaerobic, sulfate",7.8 ppm
same,Minimum Inhibition Concentration MIC,[3]; Staphylococcus aureus ATCC6538,3.9 ppm
same,bactericidal activity against E. coli ATCC25922 (log CFU reduction),"E. coli ATCC25922; 12.5 ppm, test pH 4, 30 minutes",4.3
same,bactericidal activity against E. coli ATCC25922 (log CFU reduction),"E. coli ATCC25922; 12.5 ppm, test pH 5.1, 30 minutes",0
same,bactericidal activity against E. coli ATCC25922 (log CFU reduction),"E. coli ATCC25922; 50 ppm, test pH 4, 30 minutes",6.6
same,bactericidal activity against E. coli ATCC25922 (log CFU reduction),"E. coli ATCC25922; 50 ppm, test pH 5.1, 30 minutes",<0.3
same,bactericidal activity against E. coli ATCC25922 (log CFU reduction),"E. coli ATCC25922; 200 ppm, test pH 4, 30 minutes",6.6
same,bactericidal activity against E. coli ATCC25922 (log CFU reduction),"E. coli ATCC25922; 200 ppm, test pH 5.1, 30 minutes",<0.3
same,Minimum Inhibition Concentration MIC,[4],7.8 ppm
CCCCCCCCCCCCCCCCCCOS(=O)(=O)[O-].[Na+] [octadecyl sulfate sodium salt],MIC,[1]; [6],> 500 µg/mL
same,MIC,Cutibacterium acne SK137,> 500 µg/mL
same,bacterial inhibition of Cutibacterium acne (in words),Cutibacterium acne SK137,no effect
same,MIC,[2],> 1000 µg/mL
same,inhibition of S. aureus (in words),[3],ineffective
same,MIC,[3]; Staphylococcus aureus ATCC6538,> 500 µg/mL
same,MIC,[4],> 500 µg/mL
CCCCCCCCOS(=O)(=O)[O-].[Na+] [sodium octyl sulfate],MIC,[1]; [6],> 500 µg/mL
same,MIC,Cutibacterium acne SK137,> 500 µg/mL
same,MIC,[2],> 1000 µg/mL
same,inhibition of S. aureus (in words),[3],No inhibition
same,MIC,[3]; Staphylococcus aureus ATCC6538,> 1000 µg/mL
same,MIC,[4],> 500 µg/mL
CCCCCCCC/C=C\CCCCCCCCOS(=O)(=O)[O-].[Na+] [sodium oleyl sulfate],bacterial inhibition of Corynebacterium minutissimum (in words),[1],strong bacterial inhibition effects
same,bacterial inhibition of Cutibacterium acne (in words),Cutibacterium acne SK137,strong bacterial inhibition effects
same,effect against gram-negative E. coli (in words),[2]; pH of the assay of 7.2,ineffective
same,ready biodegradability,[5],meeting both requirements for ready biodegradability
same,bactericidal activity against E. coli in solution (in words),E. coli ATCC25922; pH up to or equal to 4,some bactericidal activity
CCCCCCCCCCOS(=O)(=O)[O-].[Na+] [sodium decyl sulfate],MIC,[1]; [6],> 500 µg/mL
same,MIC,Cutibacterium acne SK137,> 500 µg/mL
same,MIC,[2],> 1000 µg/mL
same,inhibition of S. aureus (in words),[3],No inhibition
same,MIC,[3]; Staphylococcus aureus ATCC6538,> 1000 µg/mL
same,MIC,[4],> 500 µg/mL
CCCCCCCCCCCCOS(=O)(=O)[O-].[Na+] [sodium lauryl sulfate],MIC,[1]; [6],125 µg/mL
same,MIC,Cutibacterium acne SK137,31.2 µg/mL
same,MIC,[2],> 1000 µg/mL
same,inhibition of S. aureus (in words),[3],less potent than sodium oleyl sulfate
same,MIC,[3]; Staphylococcus aureus ATCC6538,125 µg/mL
same,MIC,[4],62.5 µg/mL
